Results reported in article PMC5218480 (PLoS ONE, 2017).

System: MV-4-11 cells
Test: Gene expression microarray analysis (Affymetrix PrimeView) and GSEA
Type: cell-based, human
Design: RFU PODN (11730768_x_at) / Fold change /veh PODN (11730768_x_at) / RFU LINC00158 (11744669_a_at) / Fold change /veh LINC00158 (11744669_a_at) / RFU DUSP10 (11751237_a_at) / Fold change /veh DUSP10 (11751237_a_at) / RFU ID3 (11757404_x_at) / Fold change /veh ID3 (11757404_x_at) / RFU PLEKHG5 (11737974_s_at) / Fold change /veh PLEKHG5 (11737974_s_at) / RFU LRRC4B (11730491_at) / Fold change /veh LRRC4B (11730491_at) / RFU GIMAP4 (11747438_a_at) / Fold change /veh GIMAP4 (11747438_a_at) / RFU KRT8 (11758183_x_at) / Fold change /veh KRT8 (11758183_x_at) / RFU CNN1 (11734310_a_at) / Fold change /veh CNN1 (11734310_a_at) / RFU VPS37D (11726825_at) / Fold change /veh VPS37D (11726825_at) / RFU C10orf10 (11716522_x_at) / Fold change /veh C10orf10 (11716522_x_at) / RFU KIR2DL2 /// KIR2DL4 /// KIR2DL5A /// KIR2DL5B /// KIR2DS1 /// KIR2DS2 /// KIR2DS3 /// KIR2DS4 /// KIR3DL3 /// KIR3DL3 /// KIR3DS1 (11738374_at) / Fold change /veh KIR2DL2 /// KIR2DL4 /// KIR2DL5A /// KIR2DL5B /// KIR2DS1 /// KIR2DS2 /// KIR2DS3 /// KIR2DS4 /// KIR3DL3 /// KIR3DL3 /// KIR3DS1 (11738374_at) / RFU C1QL1 (11718748_at) / Fold change /veh C1QL1 (11718748_at) / RFU TMPRSS4 (11747572_a_at) / Fold change /veh TMPRSS4 (11747572_a_at) / RFU HAMP (11756126_x_at) / Fold change /veh HAMP (11756126_x_at) / RFU RNFT2 (11725882_a_at) / Fold change /veh RNFT2 (11725882_a_at) / RFU NR4A2 (11747474_a_at) / Fold change /veh NR4A2 (11747474_a_at) / RFU ABCC12 (11746883_a_at) / Fold change /veh ABCC12 (11746883_a_at) / RFU TMEM136 (11760407_x_at) / Fold change /veh TMEM136 (11760407_x_at) / RFU CLDN22 /// WWC2 (11732394_at) / Fold change /veh CLDN22 /// WWC2 (11732394_at) / RFU HLA-DPB1 (11760878_x_at) / Fold change /veh HLA-DPB1 (11760878_x_at) / RFU SPINT1 (11716480_a_at) / Fold change /veh SPINT1 (11716480_a_at) / RFU GAP43 (11754022_s_at) / Fold change /veh GAP43 (11754022_s_at) / RFU A4GNT (11735810_at) / Fold change /veh A4GNT (11735810_at) / RFU PRB3 (11715151_x_at) / Fold change /veh PRB3 (11715151_x_at) / RFU TUBB4B (11761932_at) / Fold change /veh TUBB4B (11761932_at) / RFU CAPN14 (11732068_a_at) / Fold change /veh CAPN14 (11732068_a_at) / RFU TMCC2 (11721928_a_at) / Fold change /veh TMCC2 (11721928_a_at) / RFU IRGQ (11745062_a_at) / Fold change /veh IRGQ (11745062_a_at) / RFU FAM174B (11720279_a_at) / Fold change /veh FAM174B (11720279_a_at) / RFU TMPRSS4 (11748680_a_at) / Fold change /veh TMPRSS4 (11748680_a_at) / RFU FAM212B (11763350_a_at) / Fold change /veh FAM212B (11763350_a_at) / RFU PLEKHG5 (11743358_a_at) / Fold change /veh PLEKHG5 (11743358_a_at) / RFU ZSCAN30 (11745921_a_at) / Fold change /veh ZSCAN30 (11745921_a_at) / RFU CMKLR1 (11741424_a_at) / Fold change /veh CMKLR1 (11741424_a_at) / RFU LOC101060620 /// MAPK8IP1 (11723275_at) / Fold change /veh LOC101060620 /// MAPK8IP1 (11723275_at) / RFU SPTSSB (11747773_x_at) / Fold change /veh SPTSSB (11747773_x_at) / RFU PRSS12 (11739890_at) / Fold change /veh PRSS12 (11739890_at) / RFU BIN1 (11741810_x_at) / Fold change /veh BIN1 (11741810_x_at) / RFU WNT11 (11732464_a_at) / Fold change /veh WNT11 (11732464_a_at) / RFU C10orf10 (11716521_a_at) / Fold change /veh C10orf10 (11716521_a_at) / RFU C5orf56 (11738089_at) / Fold change /veh C5orf56 (11738089_at) / RFU CYB561 (11721691_x_at) / Fold change /veh CYB561 (11721691_x_at) / RFU ANKRD19P (11752326_a_at) / Fold change /veh ANKRD19P (11752326_a_at) / RFU OR2T12 /// OR2T33 /// OR2T8 (11738714_s_at) / Fold change /veh OR2T12 /// OR2T33 /// OR2T8 (11738714_s_at) / RFU VCAN (11748164_a_at) / Fold change /veh VCAN (11748164_a_at) / RFU JSRP1 (11732532_at) / Fold change /veh JSRP1 (11732532_at) / RFU KRTAP10-11 (11738290_x_at) / Fold change /veh KRTAP10-11 (11738290_x_at) / RFU MYO3A (11730013_a_at) / Fold change /veh MYO3A (11730013_a_at) / RFU EBF3 (11725865_a_at) / Fold change /veh EBF3 (11725865_a_at) / RFU CAMK2N1 (11719241_x_at) / Fold change /veh CAMK2N1 (11719241_x_at) / RFU C5orf56 (11738088_a_at) / Fold change /veh C5orf56 (11738088_a_at) / RFU OLFML3 (11715873_a_at) / Fold change /veh OLFML3 (11715873_a_at) / RFU LOC100653217 /// NTM (11731650_a_at) / Fold change /veh LOC100653217 /// NTM (11731650_a_at) / RFU MAPK11 (11762145_a_at) / Fold change /veh MAPK11 (11762145_a_at) / RFU FIZ1 (11724087_x_at) / Fold change /veh FIZ1 (11724087_x_at) / RFU OASL (11726364_x_at) / Fold change /veh OASL (11726364_x_at) / RFU SOX15 (11748057_x_at) / Fold change /veh SOX15 (11748057_x_at) / RFU CD79A (11719716_a_at) / Fold change /veh CD79A (11719716_a_at) / RFU HIST1H1D (11736915_at) / Fold change /veh HIST1H1D (11736915_at) / RFU CASKIN2 (11723855_a_at) / Fold change /veh CASKIN2 (11723855_a_at) / RFU LOC730098 (11760151_x_at) / Fold change /veh LOC730098 (11760151_x_at) / RFU OR4N2 (11742367_at) / Fold change /veh OR4N2 (11742367_at) / RFU PRRT2 (11749266_a_at) / Fold change /veh PRRT2 (11749266_a_at) / RFU SNX32 (11753110_a_at) / Fold change /veh SNX32 (11753110_a_at) / RFU CDHR5 (11726645_a_at) / Fold change /veh CDHR5 (11726645_a_at) / RFU RCAN1 (11760418_a_at) / Fold change /veh RCAN1 (11760418_a_at) / RFU FAM167A (11723789_a_at) / Fold change /veh FAM167A (11723789_a_at) / RFU FAM26E (11764081_at) / Fold change /veh FAM26E (11764081_at) / RFU ISYNA1 (11749810_s_at) / Fold change /veh ISYNA1 (11749810_s_at) / RFU ACY1 (11761880_at) / Fold change /veh ACY1 (11761880_at) / RFU 11764098_at / Fold change /veh 11764098_at / RFU SAMD14 (11745864_x_at) / Fold change /veh SAMD14 (11745864_x_at) / RFU NPB (11741838_a_at) / Fold change /veh NPB (11741838_a_at) / RFU TMPRSS6 (11731388_a_at) / Fold change /veh TMPRSS6 (11731388_a_at) / RFU KRTAP10-2 (11738614_at) / Fold change /veh KRTAP10-2 (11738614_at) / RFU ARHGAP8 /// PRR5-ARHGAP8 (11727945_x_at) / Fold change /veh ARHGAP8 /// PRR5-ARHGAP8 (11727945_x_at) / RFU KRTAP5-7 /// NADSYN1 (11734609_at) / Fold change /veh KRTAP5-7 /// NADSYN1 (11734609_at) / RFU RASL12 (11751679_a_at) / Fold change /veh RASL12 (11751679_a_at) / RFU CDKN2B (11736163_a_at) / Fold change /veh CDKN2B (11736163_a_at) / RFU PRF1 (11729649_at) / Fold change /veh PRF1 (11729649_at) / RFU, ZNF638 /// ZNF638-IT1 / Fold change vs veh, ZNF638 /// ZNF638-IT1 / RFU, PANK3 / Fold change vs veh, PANK3 / RFU, SH3YL1 / Fold change vs veh, SH3YL1 / RFU, ZEB2 / Fold change vs veh, ZEB2 / RFU, NRIP1 / Fold change vs veh, NRIP1 / RFU, PTTG1IP / Fold change vs veh, PTTG1IP / RFU, CAPN2 / Fold change vs veh, CAPN2 / RFU, MED14 / Fold change vs veh, MED14 / RFU, SNORA58 / Fold change vs veh, SNORA58 / RFU, C1orf63 / Fold change vs veh, C1orf63 / RFU, LRRFIP1 / Fold change vs veh, LRRFIP1 / RFU, NDUFAF7 / Fold change vs veh, NDUFAF7 / RFU, SLC12A2 / Fold change vs veh, SLC12A2 / RFU, IBTK / Fold change vs veh, IBTK / RFU, ESF1 / Fold change vs veh, ESF1 / Fold change vs veh, TMEM50B / RFU, TAOK1 / Fold change vs veh, TAOK1 / RFU, ACBD3 / Fold change vs veh, ACBD3 / RFU, TMA16 / Fold change vs veh, TMA16 / RFU, RWDD3 / Fold change vs veh, RWDD3 / RFU, BCAT1 / Fold change vs veh, BCAT1 / RFU, EDEM3 / Fold change vs veh, EDEM3 / RFU, TMEM33 / Fold change vs veh, TMEM33 / RFU, WDR75 / Fold change vs veh, WDR75 / RFU, AHCTF1 / Fold change vs veh, AHCTF1 / RFU, TFRC / Fold change vs veh, TFRC / RFU, ZDHHC17 / Fold change vs veh, ZDHHC17 / RFU, NOM1 / Fold change vs veh, NOM1 / RFU, ARL8B / Fold change vs veh, ARL8B / RFU, ZBTB11 / Fold change vs veh, ZBTB11 / RFU, TAMM41 / Fold change vs veh, TAMM41 / RFU, KIAA1704 /// LOC100996395 / Fold change vs veh, KIAA1704 /// LOC100996395 / RFU, ING1 / Fold change vs veh, ING1 / RFU, TRMT61B / Fold change vs veh, TRMT61B / RFU, FUBP3 / Fold change vs veh, FUBP3 / RFU, TP53 / Fold change vs veh, TP53 / RFU, TNKS2 / Fold change vs veh, TNKS2 / RFU, ZFP14 / Fold change vs veh, ZFP14 / RFU, ACTR2 / Fold change vs veh, ACTR2 / RFU, PPP3R1 / Fold change vs veh, PPP3R1 / RFU, PIK3R1 / Fold change vs veh, PIK3R1 / RFU, HNRNPA1 / Fold change vs veh, HNRNPA1 / RFU, RNF170 / Fold change vs veh, RNF170 / RFU, ZNF28 / Fold change vs veh, ZNF28 / RFU, RNGTT / Fold change vs veh, RNGTT / RFU, OGT / Fold change vs veh, OGT / RFU, BRD1 / Fold change vs veh, BRD1 / RFU, MARS / Fold change vs veh, MARS / RFU, ZNF655 / Fold change vs veh, ZNF655 / RFU, FAHD1 / Fold change vs veh, FAHD1 / RFU, BDP1 / Fold change vs veh, BDP1 / RFU, LRRCC1 / Fold change vs veh, LRRCC1 / RFU, ARID1A / Fold change vs veh, ARID1A / RFU, ZNF146 / Fold change vs veh, ZNF146 / RFU, ZNF330 / Fold change vs veh, ZNF330 / RFU, GPN3 / Fold change vs veh, GPN3 / RFU, C9orf123 / Fold change vs veh, C9orf123 / RFU, N4BP2L2 / Fold change vs veh, N4BP2L2 / RFU, ARFIP1 / Fold change vs veh, ARFIP1 / RFU, FAM179B / Fold change vs veh, FAM179B / RFU, BCL10 / Fold change vs veh, BCL10 / RFU, UHRF1BP1L / Fold change vs veh, UHRF1BP1L / RFU, BET1 / Fold change vs veh, BET1 / RFU, CNOT2 / Fold change vs veh, CNOT2 / RFU, ZNF268 / Fold change vs veh, ZNF268 / Fold change vs veh, ZNF507 / RFU, DGCR2 / Fold change vs veh, DGCR2 / RFU, WDSUB1 / Fold change vs veh, WDSUB1 / Fold change vs veh, HSP90B1 /// MIR3652 / RFU, ADSS / Fold change vs veh, ADSS / RFU, GK / Fold change vs veh, GK / RFU, ZNF148 / Fold change vs veh, ZNF148 / RFU, TAF9 / Fold change vs veh, TAF9 / RFU, SLC1A5 / Fold change vs veh, SLC1A5 / RFU, SLMO2 / Fold change vs veh, SLMO2 / RFU, ABCC4 / Fold change vs veh, ABCC4 / RFU, LOC101060439 /// RAP1B / Fold change vs veh, LOC101060439 /// RAP1B / RFU, RFX7 / Fold change vs veh, RFX7 / RFU, GTPBP10 / Fold change vs veh, GTPBP10 / RFU, CNEP1R1 / Fold change vs veh, CNEP1R1 / RFU, BIVM-ERCC5 /// ERCC5 / Fold change vs veh, BIVM-ERCC5 /// ERCC5 / RFU, ILF3 / Fold change vs veh, ILF3 / RFU 11762660_at / Fold change /veh 11762660_at / RFU VCAN (11757783_s_at) / Fold change /veh VCAN (11757783_s_at) / RFU DDX43 (11728927_at) / Fold change /veh DDX43 (11728927_at) / RFU KRT8 (11758188_x_at) / Fold change /veh KRT8 (11758188_x_at) / RFU NKD1 (11759106_at) / Fold change /veh NKD1 (11759106_at) / RFU SRD5A1 (11742802_a_at) / Fold change /veh SRD5A1 (11742802_a_at) / RFU TPSAB1 /// TPSB2 (11721975_s_at) / Fold change /veh TPSAB1 /// TPSB2 (11721975_s_at) / RFU GSTM3 (11746129_a_at) / Fold change /veh GSTM3 (11746129_a_at) / RFU IL23R (11737362_x_at) / Fold change /veh IL23R (11737362_x_at) / RFU TMEM51 (11727254_a_at) / Fold change /veh TMEM51 (11727254_a_at) / RFU PIWIL2 (11732686_x_at) / Fold change /veh PIWIL2 (11732686_x_at) / RFU ORM1 (11744905_x_at) / Fold change /veh ORM1 (11744905_x_at) / RFU CCDC152 (11743942_at) / Fold change /veh CCDC152 (11743942_at) / RFU ECM1 (11717891_a_at) / Fold change /veh ECM1 (11717891_a_at) / RFU IL23R (11748794_a_at) / Fold change /veh IL23R (11748794_a_at) / RFU TNFAIP8L3 (11732012_x_at) / Fold change /veh TNFAIP8L3 (11732012_x_at) / RFU MBOAT4 (11741988_at) / Fold change /veh MBOAT4 (11741988_at) / RFU 11764193_at / Fold change /veh 11764193_at / RFU TMEM53 (11763286_at) / Fold change /veh TMEM53 (11763286_at) / RFU MAGEB2 (11727129_at) / Fold change /veh MAGEB2 (11727129_at) / RFU TMEM200A (11744735_a_at) / Fold change /veh TMEM200A (11744735_a_at) / RFU CCDC152 (11751479_a_at) / Fold change /veh CCDC152 (11751479_a_at) / RFU FAM211A (11726209_a_at) / Fold change /veh FAM211A (11726209_a_at) / RFU RGS16 (11746705_a_at) / Fold change /veh RGS16 (11746705_a_at) / RFU VCAN (11755009_s_at) / Fold change /veh VCAN (11755009_s_at) / RFU RHOB (11743442_s_at) / Fold change /veh RHOB (11743442_s_at) / RFU RGS16 (11720943_a_at) / Fold change /veh RGS16 (11720943_a_at) / RFU RGS16 (11720944_at) / Fold change /veh RGS16 (11720944_at) / RFU, VPS4B / Fold change vs veh, VPS4B / RFU, CREB1 / Fold change vs veh, CREB1 / RFU, DNAJC13 / Fold change vs veh, DNAJC13 / RFU, GNAQ / Fold change vs veh, GNAQ / RFU, CDK5R1 / Fold change vs veh, CDK5R1 / RFU, ZRANB3 / Fold change vs veh, ZRANB3 / RFU, CUL4A / Fold change vs veh, CUL4A / RFU, CCNY / Fold change vs veh, CCNY / RFU, UFL1 / Fold change vs veh, UFL1 / RFU, COG3 / Fold change vs veh, COG3 / RFU, DIAPH2 / Fold change vs veh, DIAPH2 / RFU, SKA2 / Fold change vs veh, SKA2 / RFU, AFF3 / Fold change vs veh, AFF3 / RFU, LMF1 / Fold change vs veh, LMF1 / RFU, IPO11 / Fold change vs veh, IPO11 / RFU, DFFB / Fold change vs veh, DFFB / RFU, FOXP1 / Fold change vs veh, FOXP1 / RFU, CARD8 / Fold change vs veh, CARD8 / RFU, STRN3 / Fold change vs veh, STRN3 / RFU, ADK / Fold change vs veh, ADK / RFU, RASSF2 / Fold change vs veh, RASSF2 / RFU, WIPF1 / Fold change vs veh, WIPF1 / RFU, LARP1B / Fold change vs veh, LARP1B / RFU, RASA1 / Fold change vs veh, RASA1 / RFU, RB1 / Fold change vs veh, RB1 / RFU, PPFIA1 / Fold change vs veh, PPFIA1 / RFU, MAT2A / Fold change vs veh, MAT2A / RFU, CCT5 / Fold change vs veh, CCT5 / RFU, WDR92 / Fold change vs veh, WDR92 / RFU, CUX1 / Fold change vs veh, CUX1 / RFU, TTC7A / Fold change vs veh, TTC7A / RFU, TMEM135 / Fold change vs veh, TMEM135 / RFU, DEPTOR / Fold change vs veh, DEPTOR / RFU, CPM / Fold change vs veh, CPM / RFU, DNAJB6 / Fold change vs veh, DNAJB6 / RFU, CACNA2D3 / Fold change vs veh, CACNA2D3 / RFU, DTX4 / Fold change vs veh, DTX4 / RFU, TFCP2 / Fold change vs veh, TFCP2 / RFU, GMCL1 /// GMCL1P1 / Fold change vs veh, GMCL1 /// GMCL1P1 / RFU, AEBP2 / Fold change vs veh, AEBP2 / RFU, SNHG1 /// SNORD22 /// SNORD25 /// SNORD26 /// SNORD27 /// SNORD28 /// SNORD29 /// SNORD31 / Fold change vs veh, SNHG1 /// SNORD22 /// SNORD25 /// SNORD26 /// SNORD27 /// SNORD28 /// SNORD29 /// SNORD31 / Fold change (Aza/veh), C12orf56 (ProbeSet 11735607_a_at) / Fold change (ACY-1035/veh), C12orf56 (ProbeSet 11735607_a_at) / Fold change (Aza/veh), FGFR1OP (ProbeSet 11751329_s_at) / Fold change (ACY-1035/veh), FGFR1OP (ProbeSet 11751329_s_at) / Fold change (Aza/veh), VPS36 (ProbeSet 11739960_a_at) / Fold change (ACY-1035/veh), VPS36 (ProbeSet 11739960_a_at) / RFU SYPL1 (11715823_x_at) / Fold change /veh SYPL1 (11715823_x_at) / RFU IGFBP7 (11715501_s_at) / Fold change /veh IGFBP7 (11715501_s_at) / RFU REEP3 (11722064_at) / Fold change /veh REEP3 (11722064_at) / RFU IGLL1 (11728026_x_at) / Fold change /veh IGLL1 (11728026_x_at): dose or concentration left out as unconfirmed
Conditions: ProbeSet 11716999_a_at; LIST D

In the case of `Nc1ncn([C@@H]2O[C@H](CO)[C@@H](O)[C@H]2O)c(=O)n1` [azacitidine], the “RFU, RASA1” value was 172.86 RFU.
